From paper PMC11329928, “Design, synthesis and structure-activity relationship (SAR) studies of an unusual class of non-cationic fatty amine-tripeptide conjugates as novel synthetic antimicrobial agents” (Frontiers in Pharmacology, 2024)

Experiments:
[1] = test system: human fetal lung fibroblasts IMR-90; format: cell-based; details: modified MTT, 48 h exposure, 0.8–200 µM, four parameter logistic fit; ± SD, at least three independent experiments; read-out: IC50 IMR-90
Procedure: DICAM’s cytotoxicity was determined employing a modified MTT assay as described elsewhere ([Antúnez-Mojica et al., 2016]) using human lung carcinoma epithelial cells A549, human fetal lung fibroblasts IMR-90, and human HeLa cervix carcinoma cells treated with increasing concentrations of DICAMs (0.8–200 µM range). A549 cells were grown in RPMI 1640 (Gibco; Fisher Scientific, Spain) supplemented with 10% FCS, 2 mM glutamine, 100 IU/mL penicillin and 100 μg/mL streptomycin. IMR-90 and HeLa cells were cultured in DMEM (Gibco; Fisher Scientific, Spain) supplemented with 10% FCS, 2 mM L-glutamine, 1 mM pyruvate, […] penicillin, 100 μg/mL streptomycin and 40 μg/mL gentamycin. Cell viability was assessed after 48 h exposure to DICAMs. Vinblastine was used as a positive control. IC50 value is the concentration that gives 50% inhibition of cell growth and was determined using SigmaPlot (Systat) fitting to a Four Parameter Logistic curve.

S. pneumoniae D39 = format: cell-based, Streptococcus pneumoniae
From the text: First, the substitution of the fatty amino chain of 18 carbon atoms of the reference compound DICAM 2 by either an OMe group (methylated tripeptide DICAM 5) or an amine with 12 carbon atoms (DICAM 9) abolished the activity against all three pathogens. However, the activity remained intact when the chain of the fatty amine of prototypes DICAMs 1 and 4 was two carbon atoms shorter (DICAM 10 and DICAM 12, respectively), based on S. pneumoniae and S. pyogenes results. […] Third, Glu and Ala were tolerated as C-terminal residues of the lipotripeptides. […] In addition, deletion of the C-terminal Glu (DICAM 13) eradicated the activity against S. pneumoniae and S. aureus. However, a delay and small inhibition of S. pyogenes ^T growth was still observed. Fourth, Glu (DICAMs 19 and 20) and Orn (DICAMs 21 and 22) were tolerated as N-terminal residues, with the impact of these modifications being pathogen-dependent. […] SAR studies continued by measuring the dose dependence of DICAM’s activity at T1 with all the compounds found to be active against S. pyogenes or S. aureus in the initial screening, and all but one compound in the case of S. pneumoniae. The OD values of bacterial cultures were monitored after DICAM addition, and the decrease in the number of viable bacteria was measured relative to controls (Figures 4–6; Supplementary Figure S1). As antibacterial efficacy may decline with the bacterium dose in the inoculum ([Belley et al., 2009]; [Udekwu et al., 2009]; [Luca et al., 2013]), the assays were performed using the bacterial concentrations necessary for the fluorescence experiments in Section 2.3 (10^7–10^8 CFU/mL). At these high bacterial densities, MICs were determined as the DICAM concentration at which bacteria neither grow nor are killed (the stationary concentration (SC)), following [Udekwu et al., 2009]. By fitting the logarithmic plot of cell viability decrease vs. the DICAM dose to a Hill function (see Section 5.2.3.1) we were able to determine the maximum variation in viability (Δlogmax = ∆log f - ∆log 0, where ∆log f and ∆log 0 are the upper and lower limits of Δlog) in the assay conditions, the SC concentration (Δlog = 0), the dose required for half-variation in Δlogmax (K 1/2), and the cooperativity of the antimicrobial effect (N H).
Susceptibility to DICAMs was first tested by growth-inhibition assays at 50 and 100 μM of compound. Briefly, working solutions at 5 mM or 10 mM DICAM in pure DMSO were prepared from DICAM stocks (40 mM in pure DMSO) and diluted with fresh culture medium to 5× the desired final concentration. Aliquots (50 µL) of these solutions were added to 200 µL of bacterium cultures grown to early exponential phase (OD550/600 c. a. 0.15–0.2 in sterile 96-well plates (Cultek, Spain). Incubation continued for 10 h at 37°C and turbidity (OD550/600) values were measured every 20 min to monitor growth and lysis, using a VersaMax microplate reader (Molecular Devices; United Kingdom). Next, the activity dependence on DICAM’s dose was examined by measuring the turbidity of treated and untreated cultures as a function of time. Also, the decay of bacterial viability (CFU/mL) at selected times of treatment was assessed by colony counting on LB-agar or TSA plates after overnight incubation at 37°C. By default, 10 μL of 10-fold serially diluted samples were plated, which set the lower detection limit at 10^2 CFU/mL (10^1 CFU/mL when 100 μL of the undiluted sample was seeded).
As antibacterial efficacy may decline with the bacterium dose in the inoculum ([Belley et al., 2009]; [Udekwu et al., 2009]; [Luca et al., 2013]), activity assays were performed using the bacterial concentrations required for the fluorescence experiments in Section 2.3 (10^7–10^8 CFU/mL). At such bacterial densities, MICs were determined as the DICAM concentration at which bacteria neither grow nor are killed under assay conditions (the stationary concentration (SC)), as indicated in Section 2.2. […]

[2] = test system: Streptococcus pneumoniae R6; assay: Growth inhibition / lysis screening of planktonic cultures (OD550/600); format: cell-based; design: key: (+++) full inhibition; (++) partial inhibition; (+) growth retardation; -: (−) no effect; details: S. pneumoniae R6, 50 and 100 μM compound added at early logarithmic phase (T1), OD550/600 followed 10 h, 37°C
Summary of the method: (§1)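 Early exponential-phase cultures (OD550/600 c. a. 0.15–0.2) were treated with DICAMs at 50 and 100 μM final, diluted from DMSO stocks into medium, and incubated 10 h at 37°C. Turbidity (OD550/600) was read every 20 min against untreated controls to track growth inhibition and lysis.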

Streptococcus pyogenes T = assay: Growth inhibition screening of planktonic cultures (OD550/600); format: cell-based; design: key: (+++) full inhibition; (++) partial inhibition; (+) growth retardation; -: (−) no effect; details: S. pyogenes T, 50 and 100 μM compound added at T1, OD550/600 followed 10 h, 37°C
Summary of the method: as §1

Substance: Ala - Pro -Glu-NH-C18H37 · HCl [DICAM 23]
- IC50 [1]: 57 ± 2 µM
- SC (stationary concentration, Δlog = 0), S. pneumoniae D39 (S. pneumoniae D39; 1 h treatment, C + Y medium, 37°C, added at T1, 10^7–10^8 CFU/mL, CFU vs untreated controls, Hill fit): 2.9 ± 0.8 µM
- EC50 (S. pneumoniae D39; 1 h treatment, C + Y, 37°C, Hill fit, read-out: K 1/2 (concentration yielding half-variation in Δlogmax), S. pneumoniae D39 (converted)): 8.6 ± 0.3 µM
- Reduction of the number of viable cells at saturating doses (S. pneumoniae D39; S. pneumoniae D39, within 60 min): ≥ 4.6 log-units
- Reduction of the number of viable cells at 3 × SC, S. pneumoniae (S. pneumoniae D39; after 1-h incubation at 3 × SC values): 99.2%–99.8
- Δlogmax, S. pneumoniae D39 (S. pneumoniae D39; maximum variation in viability, 1 h treatment, C + Y, 37°C, Hill fit): 5.4 ± 0.2 logarithmic units
- Growth halt or lysis (50/100 μM), Spn [2]: +++
- Growth halt or lysis (50/100 μM), Spy T (Streptococcus pyogenes T): +++
